Paper PMC7914897, “Cytotoxic Potential of a-Azepano- and 3-Amino-3,4-SeCo-Triterpenoids” (International Journal of Molecular Sciences, 2021)

Assays:
U251 (CNS cancer) = assay: NCI-60 screen (SRB, 48 h); settings: Homo sapiens
RXF 393 (Renal cancer) = assay: NCI-60 screen (SRB, 48 h); settings: Homo sapiens
Colon Cancer subpanel = assay: NCI-60 screen, subpanel; settings: Homo sapiens; for IC (TGI): 48 h, read-out: TGI MG_MID; for GI50: read-out: GI50 MG_MID; for CC50: read-out: LC50 MG_MID
SK-OV-3 (Ovarian cancer) = assay: NCI-60 screen (SRB, 48 h); settings: Homo sapiens; for GI50: SK-OV-3; for IC (TGI): SK-OV-3, 48 h, read-out: TGI
EKVX (NSC lung cancer) = assay: NCI-60 screen (SRB, 48 h); settings: Homo sapiens
SW-620 (Colon cancer) = assay: NCI-60 screen (SRB, 48 h); settings: Homo sapiens; for GI50: SW-620; for IC (TGI): SW-620, 48 h, read-out: TGI; for CC50: SW-620, read-out: LC50
[1] = test system: NCI-H460 (NSC lung cancer); assay: NCI-60 screen (SRB, 48 h); settings: Homo sapiens; for GI50: NCI-H460; for IC (TGI): NCI-H460, 48 h, read-out: TGI; for CC50: NCI-H460, read-out: LC50
Breast cancer subpanel = assay: NCI-60 screen, subpanel; settings: Homo sapiens; for IC (TGI): 48 h, read-out: TGI MG_MID; for GI50: read-out: GI50 MG_MID; for CC50: read-out: LC50 MG_MID
SK-MEL-28 (Melanoma) = assay: NCI-60 screen (SRB, 48 h); settings: Homo sapiens; for GI50: SK-MEL-28; for IC (TGI): SK-MEL-28, 48 h, read-out: TGI
T-47D (Breast cancer) = assay: NCI-60 screen (SRB, 48 h); settings: Homo sapiens, T47D; for IC (TGI): 48 h, read-out: TGI
786-0 (Renal cancer) = assay: NCI-60 screen (SRB, 48 h); settings: for GI50: 786-0; for IC (TGI): 786-0, 48 h, read-out: TGI
OVCAR-4 (Ovarian cancer) = assay: NCI-60 screen (SRB, 48 h); type: cell-based; settings: Homo sapiens; for IC (TGI): OVCAR-4, 48 h; for GI50: read-out: GI50
LOX IMVI (Melanoma) = assay: NCI-60 screen (SRB, 48 h); type: cell-based; settings: Homo sapiens; for GI50: read-out: GI50
[2] = test system: NCI/ADR-RES (Ovarian cancer); assay: NCI-60 screen (SRB, 48 h); settings: Homo sapiens
MOLT-4 (Leukemia) = assay: NCI-60 screen (SRB, 48 h); settings: Homo sapiens; for GI50: MOLT-4
HOP-92 (NSC lung cancer) = assay: NCI-60 screen (SRB, 48 h); settings: Homo sapiens; for GI50: HOP-92; for IC (TGI): HOP-92, 48 h, read-out: TGI
[3] = test system: MDA-MB-468 (Breast cancer); assay: cells; settings: Homo sapiens; for GI50: MDA-MB-468; for IC (TGI): MDA-MB-468, 48 h, read-out: TGI; for CC50: MDA-MB-468, read-out: LC50
Ovarian Cancer subpanel = assay: NCI-60 screen, subpanel; settings: Homo sapiens; for IC (TGI): 48 h, read-out: TGI MG_MID; for GI50: read-out: GI50 MG_MID; for CC50: read-out: LC50 MG_MID
M14 (Melanoma) = assay: NCI-60 screen (SRB, 48 h); settings: for GI50 / IC (TGI) / CC50: Homo sapiens; for GI50: M14; for IC (TGI): M14, 48 h, read-out: TGI; for CC50: M14, read-out: LC50
ACHN (Renal cancer) = assay: NCI-60 screen (SRB, 48 h); settings: for IC (TGI): 48 h, read-out: TGI
SNB-75 (CNS cancer) = assay: NCI-60 screen (SRB, 48 h); settings: Homo sapiens; for GI50: SNB-75; for IC (TGI): SNB-75, 48 h, read-out: TGI
HL-60(TB) (Leukemia) = assay: NCI-60 screen (SRB, 48 h); type: cell-based; settings: Homo sapiens; for IC (TGI): 48 h
RPMI-8226 (Leukemia) = assay: NCI-60 screen (SRB, 48 h); settings: Homo sapiens, RPMI-8226

## C=C(C)[C@@H]1CC[C@]2(C)[C@H](C=CC3=C4C[C@@](C)(CO)CC[C@]4(C)CC[C@]32C)[C@@]1(C)CCCN [Compound 20]
U251 (CNS cancer); U-251
  GI50: 1.64 µM
U251 (CNS cancer); U-251, 48 h, read-out: TGI
  IC (TGI): 3.32 µM
U251 (CNS cancer); U-251, read-out: LC50
  CC50: 6.72 µM
RXF 393 (Renal cancer); RXF 393
  GI50: 1.62 µM
RXF 393 (Renal cancer); RXF 393, 48 h, read-out: TGI
  IC (TGI): 3.07 µM
RXF 393 (Renal cancer); RXF 393, read-out: LC50
  CC50: 5.81 µM
Colon Cancer subpanel
  IC (TGI): 2.98 µM
  GI50: 1.47 µM
  CC50: 5.96 µM
SK-OV-3 (Ovarian cancer)
  GI50: 1.72 µM
  IC (TGI): 3.17 µM
SK-OV-3 (Ovarian cancer); SK-OV-3, read-out: LC50
  CC50: 5.85 µM
EKVX (NSC lung cancer)
  GI50: 1.6 µM
EKVX (NSC lung cancer); 48 h, read-out: TGI
  IC (TGI): 3.1 µM
EKVX (NSC lung cancer); read-out: LC50
  CC50: 6.01 µM
SW-620 (Colon cancer)
  GI50: 1.56 µM
  IC (TGI): 3.04 µM
  CC50: 5.93 µM
[1]
  GI50: 1.71 µM
  IC (TGI): 3.33 µM
  CC50: 6.49 µM
Breast cancer subpanel
  IC (TGI): 3.41 µM
  GI50: 1.68 µM
  CC50: 6.94 µM
SK-MEL-28 (Melanoma)
  GI50: 1.82 µM
  IC (TGI): 3.25 µM
SK-MEL-28 (Melanoma); SK-MEL-28, read-out: LC50
  CC50: 5.8 µM
T-47D (Breast cancer)
  GI50: 1.67 µM
  IC (TGI): 3.45 µM
786-0 (Renal cancer); 786-0, 1 dose 10 µM
  Growth % of the Most Sensitive Cell Lines: −97.28%
786-0 (Renal cancer); Homo sapiens
  GI50: 1.68 µM
  IC (TGI): 3.44 µM
786-0 (Renal cancer); Homo sapiens, 786-0, read-out: LC50
  CC50: 7.04 µM
OVCAR-4 (Ovarian cancer)
  IC (TGI): 3.09 µM
OVCAR-4 (Ovarian cancer); OVCAR-4
  GI50: 1.53 µM
OVCAR-4 (Ovarian cancer); OVCAR-4, read-out: LC50 (the source's name)
  CC50: 6.23 µM
LOX IMVI (Melanoma); 48 h
  IC (TGI): 2.7 µM
LOX IMVI (Melanoma); 48 h, 1 dose 10 µM, read-out: Growth % of the Most Sensitive Cell Lines
  activity at 10 µM: -100%
LOX IMVI (Melanoma)
  GI50: 1.37 µM
LOX IMVI (Melanoma); read-out: LC50 (the source's name)
  CC50: 5.31 µM
[2]
  GI50: 1.74 µM
[2]; 48 h, read-out: TGI
  IC (TGI): 3.37 µM
[2]; read-out: LC50
  CC50: 6.54 µM
MOLT-4 (Leukemia)
  GI50: 1.78 µM
MOLT-4 (Leukemia); MOLT-4, 48 h, read-out: TGI
  IC (TGI): 3.86 µM
HOP-92 (NSC lung cancer)
  GI50: 1.48 µM
  IC (TGI): 3.21 µM
HOP-92 (NSC lung cancer); HOP-92, read-out: LC50
  CC50: 6.96 µM
[3]
  GI50: 1.58 µM
  IC (TGI): 3.2 µM
  CC50: 6.47 µM
Ovarian Cancer subpanel
  IC (TGI): 3.3 µM
  GI50: 1.69 µM
  CC50: 6.49 µM
M14 (Melanoma)
  GI50: 1.69 µM
  IC (TGI): 3.34 µM
  CC50: 6.62 µM
ACHN (Renal cancer); 1 dose 10 µM
  Growth % of the Most Sensitive Cell Lines: −94.94%
ACHN (Renal cancer); Homo sapiens
  GI50: 1.76 µM
  IC (TGI): 3.14 µM
ACHN (Renal cancer); Homo sapiens, read-out: LC50
  CC50: 5.6 µM
SNB-75 (CNS cancer)
  GI50: 1.53 µM
  IC (TGI): 2.97 µM
SNB-75 (CNS cancer); SNB-75, read-out: LC50
  CC50: 5.77 µM
HL-60(TB) (Leukemia)
  GI50: 1.58 µM
  IC (TGI): 3.62 µM

## C[C@H]1[C@H](C)CC[C@]2(C(=O)Nc3ccc4ncccc4c3)CC[C@]3(C)C(=CC[C@@H]4[C@@]5(C)CCCNC(C)(C)[C@@H]5CC[C@]43C)[C@H]12 [Compound 14]
Colon Cancer subpanel
  IC (TGI): 3.37 µM
  GI50: 1.66 µM
  CC50: 6.18 µM
SK-OV-3 (Ovarian cancer)
  GI50: 1.77 µM
  IC (TGI): 3.27 µM
EKVX (NSC lung cancer)
  GI50: 1.66 µM
SW-620 (Colon cancer)
  GI50: 1.8 µM
  IC (TGI): 3.37 µM
  CC50: 6.31 µM
[1]
  GI50: 1.94 µM
  IC (TGI): 3.82 µM
  CC50: 7.53 µM
Breast cancer subpanel
  IC (TGI): 3.44 µM
  GI50: 1.76 µM
  CC50: 6.87 µM
SK-MEL-28 (Melanoma)
  GI50: 1.66 µM
  IC (TGI): 3.11 µM
T-47D (Breast cancer)
  GI50: 1.67 µM
  IC (TGI): 3.64 µM
786-0 (Renal cancer); Homo sapiens
  GI50: 1.85 µM
  IC (TGI): 3.48 µM
RPMI-8226 (Leukemia)
  GI50: 1.6 µM
OVCAR-4 (Ovarian cancer)
  IC (TGI): 3.25 µM
OVCAR-4 (Ovarian cancer); OVCAR-4
  GI50: 1.66 µM
LOX IMVI (Melanoma)
  GI50: 1.78 µM
[2]
  GI50: 1.91 µM
MOLT-4 (Leukemia)
  GI50: 1.42 µM
HOP-92 (NSC lung cancer)
  GI50: 1.54 µM
  IC (TGI): 3.14 µM
[3]
  GI50: 1.74 µM
  IC (TGI): 3.45 µM
  CC50: 6.87 µM
Ovarian Cancer subpanel
  IC (TGI): 3.3 µM
  GI50: 1.77 µM
  CC50: 6.69 µM
M14 (Melanoma)
  GI50: 1.94 µM
  IC (TGI): 3.59 µM
  CC50: 6.65 µM
M14 (Melanoma); M14, 1 dose 10 µM
  Growth % of the Most Sensitive Cell Lines: −92.02%
ACHN (Renal cancer); Homo sapiens
  GI50: 1.77 µM
  IC (TGI): 3.24 µM
SNB-75 (CNS cancer)
  GI50: 1.52 µM
  IC (TGI): 3.09 µM
HL-60(TB) (Leukemia)
  GI50: 1.64 µM
  IC (TGI): 3.63 µM
